From ChEMBL document CHEMBL1201862, “PubChem BioAssay data set” (2004)
Active and inactive are the calls of the source.

Experiments:
Caspase-6 = molecular target: T1, Caspase-6 (Homo sapiens, UniProt P55212); test: inhibition of CASP6 peptide cleavage – biochemical, VEID-R110 fluorescence, cherry-pick, dose response (AID 720632)
T1 sequence (P55212 whole entry): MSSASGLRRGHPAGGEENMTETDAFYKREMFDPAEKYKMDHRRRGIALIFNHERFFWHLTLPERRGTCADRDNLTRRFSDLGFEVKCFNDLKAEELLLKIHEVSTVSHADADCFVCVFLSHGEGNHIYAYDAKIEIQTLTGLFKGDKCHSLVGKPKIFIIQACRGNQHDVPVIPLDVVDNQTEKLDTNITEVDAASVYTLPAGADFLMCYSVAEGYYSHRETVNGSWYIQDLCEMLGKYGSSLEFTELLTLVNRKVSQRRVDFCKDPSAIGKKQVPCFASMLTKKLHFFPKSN

[1] = NIH3T3 cell viability loss – ATP luminescence, mouse fibroblasts, counter-screen, dose response (AID 2010); type: functional, cell-based;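 further: cells exposed to compound for about 90 hours before reading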
[2] = molecular target: T2, Apoptotic protease-activating factor 1 (Homo sapiens, UniProt O14727); type: functional
T2 sequence (O14727 whole entry): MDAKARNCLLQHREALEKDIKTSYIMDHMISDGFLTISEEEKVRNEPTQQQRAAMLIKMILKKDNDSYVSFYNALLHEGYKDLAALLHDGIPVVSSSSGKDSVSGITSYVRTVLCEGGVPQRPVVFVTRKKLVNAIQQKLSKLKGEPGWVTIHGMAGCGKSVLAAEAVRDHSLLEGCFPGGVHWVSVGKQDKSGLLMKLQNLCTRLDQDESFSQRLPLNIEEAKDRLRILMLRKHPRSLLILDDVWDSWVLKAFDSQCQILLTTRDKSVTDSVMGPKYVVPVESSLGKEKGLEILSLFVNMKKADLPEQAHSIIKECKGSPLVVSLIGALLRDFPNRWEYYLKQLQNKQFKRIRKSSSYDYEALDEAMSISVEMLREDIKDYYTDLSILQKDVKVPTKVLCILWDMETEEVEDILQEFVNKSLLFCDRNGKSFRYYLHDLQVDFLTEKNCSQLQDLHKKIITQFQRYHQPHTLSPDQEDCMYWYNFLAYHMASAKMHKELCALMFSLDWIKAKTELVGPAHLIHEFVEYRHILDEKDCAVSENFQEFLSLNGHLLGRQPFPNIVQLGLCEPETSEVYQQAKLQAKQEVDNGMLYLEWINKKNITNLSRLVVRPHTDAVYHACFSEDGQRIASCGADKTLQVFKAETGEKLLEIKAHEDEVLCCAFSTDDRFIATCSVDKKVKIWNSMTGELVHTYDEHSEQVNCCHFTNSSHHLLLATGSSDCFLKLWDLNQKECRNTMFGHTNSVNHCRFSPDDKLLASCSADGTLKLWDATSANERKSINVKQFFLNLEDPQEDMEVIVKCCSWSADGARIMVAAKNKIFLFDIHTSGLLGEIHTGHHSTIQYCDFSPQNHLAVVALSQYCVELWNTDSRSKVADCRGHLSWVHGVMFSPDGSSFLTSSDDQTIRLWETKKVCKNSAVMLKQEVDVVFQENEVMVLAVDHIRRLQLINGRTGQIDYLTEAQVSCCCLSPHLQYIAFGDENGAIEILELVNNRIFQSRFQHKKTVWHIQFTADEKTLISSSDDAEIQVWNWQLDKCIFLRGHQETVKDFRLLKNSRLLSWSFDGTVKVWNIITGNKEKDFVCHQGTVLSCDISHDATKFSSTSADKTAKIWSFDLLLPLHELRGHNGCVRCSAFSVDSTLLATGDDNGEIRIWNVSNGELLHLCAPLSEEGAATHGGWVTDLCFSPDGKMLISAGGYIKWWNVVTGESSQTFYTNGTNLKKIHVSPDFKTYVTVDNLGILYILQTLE

[3] = molecular target: Serine/threonine-protein kinase PAK 4 (Homo sapiens, UniProt O96013); type: functional;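 further: value obtained within a kinome profiling panel in which PAK4 was one of the panel members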
[4] = molecular target: Dual specificity tyrosine-phosphorylation-regulated kinase 1A (Homo sapiens, UniProt Q13627); type: functional;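 further: measured against DYRK1A as one member of a broad kinome profiling panel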
[5] = molecular target: Ribosomal protein S6 kinase beta-1 (Homo sapiens, UniProt P23443); type: functional;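 further: measured as one member of a kinome-wide profiling panel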
Chain of Ribosomal protein S6 kinase beta-1 (P23443 whole entry): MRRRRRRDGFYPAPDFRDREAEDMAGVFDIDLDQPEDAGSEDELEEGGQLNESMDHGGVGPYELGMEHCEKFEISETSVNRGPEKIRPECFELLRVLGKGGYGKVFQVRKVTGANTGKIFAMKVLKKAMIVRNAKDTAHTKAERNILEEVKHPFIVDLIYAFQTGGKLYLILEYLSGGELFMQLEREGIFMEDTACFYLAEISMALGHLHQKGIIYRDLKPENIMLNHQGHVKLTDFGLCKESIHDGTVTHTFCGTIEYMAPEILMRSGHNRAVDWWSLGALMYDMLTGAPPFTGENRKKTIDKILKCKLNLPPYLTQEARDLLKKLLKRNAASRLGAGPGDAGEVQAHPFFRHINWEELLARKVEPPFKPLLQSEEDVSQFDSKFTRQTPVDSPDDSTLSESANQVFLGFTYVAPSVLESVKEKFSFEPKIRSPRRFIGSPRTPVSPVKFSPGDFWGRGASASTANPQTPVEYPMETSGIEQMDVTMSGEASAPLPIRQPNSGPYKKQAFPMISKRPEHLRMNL

[6] = molecular target: Tyrosine-protein kinase Lyn (Homo sapiens, UniProt P07948); type: functional;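 further: lyn as one member of a kinase panel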
Chain of Tyrosine-protein kinase Lyn (P07948 whole entry): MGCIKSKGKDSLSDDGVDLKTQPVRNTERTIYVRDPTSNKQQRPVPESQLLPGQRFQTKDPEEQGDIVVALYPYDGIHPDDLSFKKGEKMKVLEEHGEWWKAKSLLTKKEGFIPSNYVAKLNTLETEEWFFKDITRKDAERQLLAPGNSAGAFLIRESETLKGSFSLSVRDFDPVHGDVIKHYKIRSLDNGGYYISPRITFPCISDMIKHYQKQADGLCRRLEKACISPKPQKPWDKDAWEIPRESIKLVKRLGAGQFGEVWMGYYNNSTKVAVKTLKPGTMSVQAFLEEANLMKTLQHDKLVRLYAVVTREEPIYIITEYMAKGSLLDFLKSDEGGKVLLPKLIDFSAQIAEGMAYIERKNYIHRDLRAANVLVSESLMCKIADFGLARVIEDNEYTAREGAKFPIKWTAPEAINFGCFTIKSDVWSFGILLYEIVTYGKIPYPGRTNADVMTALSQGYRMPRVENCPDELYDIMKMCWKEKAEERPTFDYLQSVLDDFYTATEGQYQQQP

[7] = molecular target: Dual specificity mitogen-activated protein kinase kinase 1 (Homo sapiens, UniProt Q02750); test: Navigating the Kinome. Panel member name: MAP2K1; type: functional
Chain of Dual specificity mitogen-activated protein kinase kinase 1 (Q02750 whole entry): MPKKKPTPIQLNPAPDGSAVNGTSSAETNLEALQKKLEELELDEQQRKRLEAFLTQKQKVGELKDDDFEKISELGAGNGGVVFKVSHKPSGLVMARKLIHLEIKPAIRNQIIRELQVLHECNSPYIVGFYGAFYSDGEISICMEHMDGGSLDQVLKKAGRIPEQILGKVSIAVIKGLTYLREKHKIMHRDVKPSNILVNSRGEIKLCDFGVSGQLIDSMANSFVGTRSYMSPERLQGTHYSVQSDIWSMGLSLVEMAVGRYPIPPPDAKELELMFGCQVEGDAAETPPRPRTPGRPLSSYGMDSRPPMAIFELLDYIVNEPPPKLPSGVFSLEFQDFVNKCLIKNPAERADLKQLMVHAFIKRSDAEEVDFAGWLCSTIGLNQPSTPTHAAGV

[8] = molecular target: Tyrosine-protein kinase SYK (Homo sapiens, UniProt P43405); type: functional
[9] = molecular target: Insulin-like growth factor 1 receptor (Homo sapiens, UniProt P08069); test: Navigating the Kinome. Panel member name: IGF1R; type: functional
[10] = molecular target: MAP/microtubule affinity-regulating kinase 3 (Homo sapiens, UniProt P27448); type: functional;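 further: MARK3 affinity measured as one member of a kinome panel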
[11] = molecular target: RAC-gamma serine/threonine-protein kinase (Homo sapiens, UniProt Q9Y243); type: functional
Chain of RAC-gamma serine/threonine-protein kinase (Q9Y243 whole entry): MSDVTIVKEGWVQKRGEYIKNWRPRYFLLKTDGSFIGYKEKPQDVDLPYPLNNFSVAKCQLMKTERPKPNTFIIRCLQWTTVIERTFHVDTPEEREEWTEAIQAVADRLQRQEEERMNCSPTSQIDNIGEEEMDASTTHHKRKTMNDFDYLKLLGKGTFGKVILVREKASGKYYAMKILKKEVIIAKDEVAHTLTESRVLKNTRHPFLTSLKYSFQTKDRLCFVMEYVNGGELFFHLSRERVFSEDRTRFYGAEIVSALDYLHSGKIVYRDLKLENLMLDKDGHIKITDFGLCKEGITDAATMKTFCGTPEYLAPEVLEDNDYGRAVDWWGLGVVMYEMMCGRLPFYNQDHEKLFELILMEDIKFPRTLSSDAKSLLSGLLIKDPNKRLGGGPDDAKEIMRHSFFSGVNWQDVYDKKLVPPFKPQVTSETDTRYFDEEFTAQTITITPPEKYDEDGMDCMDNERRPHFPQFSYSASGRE

[12] = molecular target: Dual specificity tyrosine-phosphorylation-regulated kinase 4 (Homo sapiens, UniProt Q9NR20); type: functional
Chain of Dual specificity tyrosine-phosphorylation-regulated kinase 4 (Q9NR20 whole entry): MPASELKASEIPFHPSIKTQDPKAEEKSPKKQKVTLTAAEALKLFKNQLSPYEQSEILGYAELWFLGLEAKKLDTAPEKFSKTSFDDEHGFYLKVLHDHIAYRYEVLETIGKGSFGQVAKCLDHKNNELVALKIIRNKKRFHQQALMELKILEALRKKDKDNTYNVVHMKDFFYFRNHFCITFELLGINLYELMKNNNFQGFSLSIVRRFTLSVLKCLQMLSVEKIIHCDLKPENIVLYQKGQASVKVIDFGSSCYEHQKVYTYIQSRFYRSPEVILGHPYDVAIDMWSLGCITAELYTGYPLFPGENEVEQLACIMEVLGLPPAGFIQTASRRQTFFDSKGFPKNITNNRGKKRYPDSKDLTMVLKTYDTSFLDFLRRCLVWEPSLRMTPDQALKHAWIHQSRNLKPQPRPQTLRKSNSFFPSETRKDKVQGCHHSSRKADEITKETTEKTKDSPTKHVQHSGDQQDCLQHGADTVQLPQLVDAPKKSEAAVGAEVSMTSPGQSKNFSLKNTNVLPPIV

[13] = molecular target: Serine/threonine-protein kinase Chk2 (Homo sapiens, UniProt O96017); type: functional;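 further: CHEK2 entry within a kinome-wide screening panel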
[14] = molecular target: Inhibitor of nuclear factor kappa-B kinase subunit epsilon (Homo sapiens, UniProt Q14164); test: Navigating the Kinome. Panel member name: IKBKE; type: functional
Chain of Inhibitor of nuclear factor kappa-B kinase subunit epsilon (Q14164 whole entry): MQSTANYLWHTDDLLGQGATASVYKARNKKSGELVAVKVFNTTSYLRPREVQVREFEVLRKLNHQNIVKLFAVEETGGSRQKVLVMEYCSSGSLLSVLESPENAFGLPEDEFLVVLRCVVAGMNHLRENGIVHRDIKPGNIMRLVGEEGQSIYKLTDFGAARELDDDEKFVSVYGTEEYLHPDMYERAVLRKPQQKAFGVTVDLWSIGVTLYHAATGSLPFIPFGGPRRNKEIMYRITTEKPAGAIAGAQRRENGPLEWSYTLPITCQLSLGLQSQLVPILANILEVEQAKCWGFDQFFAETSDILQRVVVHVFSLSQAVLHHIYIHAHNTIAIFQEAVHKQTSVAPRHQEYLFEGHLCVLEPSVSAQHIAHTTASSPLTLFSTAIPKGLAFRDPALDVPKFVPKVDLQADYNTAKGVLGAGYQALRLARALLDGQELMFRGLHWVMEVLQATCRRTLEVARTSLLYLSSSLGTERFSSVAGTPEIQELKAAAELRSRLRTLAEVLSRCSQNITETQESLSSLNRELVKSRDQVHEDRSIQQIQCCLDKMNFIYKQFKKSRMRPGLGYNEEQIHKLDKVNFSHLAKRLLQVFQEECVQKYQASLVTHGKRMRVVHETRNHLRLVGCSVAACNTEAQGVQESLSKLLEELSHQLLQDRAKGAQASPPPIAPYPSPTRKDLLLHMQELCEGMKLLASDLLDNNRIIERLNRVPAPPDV

[15] = molecular target: Serine/threonine-protein kinase TAO1 (Homo sapiens, UniProt Q7L7X3); type: functional
[16] = molecular target: Dual specificity protein kinase CLK2 (Homo sapiens, UniProt P49760); type: functional
[17] = molecular target: Dual specificity protein kinase CLK4 (Homo sapiens, UniProt Q9HAZ1); type: functional
[18] = molecular target: Serine/threonine-protein kinase PAK 1 (Homo sapiens, UniProt Q13153); type: functional
Aurora kinase B = Aurora kinase B (Homo sapiens, UniProt Q96GD4); type: functional
[19] = molecular target: Mitogen-activated protein kinase 12 (Homo sapiens, UniProt P53778); type: functional;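 further: measured as one member of a kinome-wide kinase profiling panel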
[20] = molecular target: Glycogen synthase kinase-3 beta (Homo sapiens, UniProt P49841); type: functional;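 further: value comes from a broad kinome profiling panel, with GSK3B as the panel member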
Chain of Glycogen synthase kinase-3 beta (P49841 whole entry): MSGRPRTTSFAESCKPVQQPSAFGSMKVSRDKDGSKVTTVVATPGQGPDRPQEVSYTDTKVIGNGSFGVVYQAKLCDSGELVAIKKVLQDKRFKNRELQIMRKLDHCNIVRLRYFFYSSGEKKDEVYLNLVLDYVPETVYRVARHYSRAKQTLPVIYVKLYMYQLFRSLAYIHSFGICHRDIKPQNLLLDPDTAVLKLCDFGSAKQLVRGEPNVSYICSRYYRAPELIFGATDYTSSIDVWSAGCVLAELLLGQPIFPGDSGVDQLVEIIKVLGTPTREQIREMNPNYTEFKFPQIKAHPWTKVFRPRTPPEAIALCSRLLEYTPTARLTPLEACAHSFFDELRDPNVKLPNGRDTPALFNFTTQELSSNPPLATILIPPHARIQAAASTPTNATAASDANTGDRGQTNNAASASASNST

[21] = molecular target: Epidermal growth factor receptor (Homo sapiens, UniProt P00533)
Chain of Epidermal growth factor receptor (P00533 whole entry): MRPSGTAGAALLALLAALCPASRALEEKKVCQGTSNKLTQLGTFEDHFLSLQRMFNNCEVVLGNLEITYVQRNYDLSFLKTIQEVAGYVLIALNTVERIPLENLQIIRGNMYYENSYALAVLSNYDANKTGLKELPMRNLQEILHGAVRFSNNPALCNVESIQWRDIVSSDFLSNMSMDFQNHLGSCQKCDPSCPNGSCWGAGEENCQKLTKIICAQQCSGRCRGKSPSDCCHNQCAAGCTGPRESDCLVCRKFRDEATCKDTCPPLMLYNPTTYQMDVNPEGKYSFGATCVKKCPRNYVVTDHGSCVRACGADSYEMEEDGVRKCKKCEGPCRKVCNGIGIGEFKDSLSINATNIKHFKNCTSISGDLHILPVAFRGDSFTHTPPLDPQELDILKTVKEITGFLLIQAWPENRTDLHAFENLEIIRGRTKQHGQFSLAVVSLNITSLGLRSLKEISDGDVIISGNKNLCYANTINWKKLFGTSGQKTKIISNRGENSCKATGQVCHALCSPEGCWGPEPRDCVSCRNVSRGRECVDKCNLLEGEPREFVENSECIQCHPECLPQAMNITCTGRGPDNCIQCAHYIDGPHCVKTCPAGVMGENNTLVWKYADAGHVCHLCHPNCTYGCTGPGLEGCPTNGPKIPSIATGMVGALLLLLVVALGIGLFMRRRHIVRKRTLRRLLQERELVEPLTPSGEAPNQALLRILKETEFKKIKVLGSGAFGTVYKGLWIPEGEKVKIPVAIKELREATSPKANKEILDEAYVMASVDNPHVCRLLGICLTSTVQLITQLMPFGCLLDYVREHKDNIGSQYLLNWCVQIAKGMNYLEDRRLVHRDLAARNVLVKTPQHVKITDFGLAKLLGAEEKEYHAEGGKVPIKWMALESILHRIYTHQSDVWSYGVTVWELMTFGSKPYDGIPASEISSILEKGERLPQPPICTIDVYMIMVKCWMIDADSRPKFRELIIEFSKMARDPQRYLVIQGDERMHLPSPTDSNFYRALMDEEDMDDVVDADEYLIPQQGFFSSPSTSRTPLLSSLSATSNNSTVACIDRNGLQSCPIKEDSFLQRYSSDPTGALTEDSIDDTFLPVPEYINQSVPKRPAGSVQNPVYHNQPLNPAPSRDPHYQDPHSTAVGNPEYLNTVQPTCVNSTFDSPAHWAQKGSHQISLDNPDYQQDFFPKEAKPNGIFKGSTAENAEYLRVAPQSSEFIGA

[22] = molecular target: Serine/threonine-protein kinase PLK3 (Homo sapiens, UniProt Q9H4B4); type: functional
[23] = molecular target: Dual specificity mitogen-activated protein kinase kinase 2 (Homo sapiens, UniProt P36507); test: Navigating the Kinome. Panel member name: MAP2K2; type: functional

Cc1c(NC(=O)C(C)OC(=O)c2ccc([N+](=O)[O-])s2)c(=O)n(-c2ccccc2)n1C (stereo not given)
> 60000 nM (not active): EC50 [1]
active: AC50 (Caspase-6) 4820 nM

COc1cc(Br)c(C(=O)c2nccc3cc(OC)c(OC)cc23)cc1OC
active: IC50 [2] 7370 nM

CC(N)C1CCC(C(=O)Nc2ccnc3[nH]ccc23)CC1 (stereo not given)
inactive: Ki [4] > 1260 nM | Ki [6] > 1580 nM | Ki [7] > 2510 nM | Ki [8] > 1580 nM | Ki [9] > 2000 nM | Ki [10] > 5010 nM | Ki [12] > 7940 nM | Ki [13] > 1580 nM | Ki [14] > 3160 nM | Ki [15] > 7940 nM | Ki [18] > 10000 nM | Ki [19] > 6310 nM | Ki [20] > 5010 nM | Ki [21] > 2000 nM | Ki [22] > 7940 nM | Ki [23] > 2000 nM
active: Ki [3] 1580 nM | Ki [5] 501 nM | Ki [11] 2510 nM | Ki [16] 1260 nM | Ki [17] 158 nM | Ki (Aurora kinase B) 1000 nM
